Results reported in patent US10357485B1, “Anti-cancer compound” (KING SAUD UNIVERSITY, priority 2018, dated 2019).
Where two headings read alike, the source gives them in different places.

Tests used:
Assay type in all cases: cell-based, human
NCI-H460 cells = assay: MTT cytotoxicity assay on NCI-H460 cells; conditions: NCI-H460, 1-20 μM, 24 and 48 hours
Protocol: (§1) As described in detail herein, a cytotoxicity assay of compound 4 was performed on four human cancer cell lines—JURKAT, NCI-H460, HCT116 and MCF7—with camptothecin (CPT) as a positive control. The inhibitory effects of compound 4 on JURKAT, NCI-H460, HCT116 and MCF7 cancer cells were determined by an MTT (3-[4,5-dimethylthiazol-2-yl]-2,5 diphenyltetrazolium bromide) assay. The cancer cells were exposed to compound 4 at various concentrations of 1, 5, 10, 15, and 20 μM for different incubation periods of 24 h and 48 h. […] The stock solutions of 1 mM compound 4 and camptothecin (40 μM) were prepared, respectively, in DMSO. Further dilutions of 1, 5, 10, 15, and 20 μM were made in Dulbecco's Modified Eagle's Medium (DMEM) for treatment of cancer cells. […] Adherent cells were trypsinized, counted and seeded in 96-well plates for viability studies. […] JURKAT cells were washed with D-PBS, counted and seeded in 96-well plates for viability studies. Cytotoxicity of compound 4 for JURKAT cells was determined by 3-(4,5-dimethylthiazol-2-yl)-2,5-diphenyltetrazolium bromide (MTT) assay. […] The MTT assay was performed according to manufacturer instructions and absorbance of the treated and untreated cells were measured in a microplate reader at 570 nm wavelength. […]

HCT116 cells = assay: MTT cytotoxicity assay on HCT116 cells; conditions: HCT116, 1-20 μM, 24 and 48 hours
Protocol: as §1

JURKAT cells [1] = assay: Mitochondrial membrane potential (ΔΨm) assay, JC-1 staining; conditions: 48 h, 10.33 μM
Protocol: Mitochondrial membrane depolarization is an early event in apoptosis. Chemotherapeutic agents usually induce apoptosis via the mitochondrial pathway. Evaluation of the effect of compound 4 treatment on mitochondrial membrane depolarization was determined using flow cytometry after staining with mitochondrial potential-sensitive dye JC-1. […] Mitochondrial membrane potential (ΔΨm) was determined using JC-1, a fluorescent carbocyanine dye (Smiley et al., 1991). Briefly, JURKAT cells (1×10^6 cells/well) were seeded in a 6-well plate. […] Each of the cell pellets were incubated with 2.5 μM JC-1 for 15 min at 37° C. in darkness. Subsequently, stained cells were washed with PBS, followed by FACS analysis (BD FACS Calibur, San Jose, Calif., USA).

JURKAT cells [2] = assay: Cell cycle analysis, propidium iodide staining, flow cytometry; conditions: 48 h, 10.33 μM
Protocol: Therefore, interruption of cell cycle progression is an important target for cancer treatment. JURKAT cells were treated with compound 4 for 48 h and stained with propidium iodide to determine the proportion of cells undergoing apoptosis or cell death as analyzed by flow cytometry. […] The percentage of compound 4-treated cells decreased in G0/G1 and G2/M phase. […] Checkpoints are the pathways that halt progression of the cell cycle in response to cellular stress. Targeting checkpoint pathways are potential anti-cancer strategies because abrogation of checkpoint function drives tumor cells toward apoptosis and enhances the efficacy of oncotherapy. The cell cycle phase evaluation was performed as described by […] et al. (2007). Jurkat cells were plated at 1×10^6 cells/well in a six-well plate for 12 h and then cells were exposed with compound-4 in serum-free media and incubated for an additional 48 h. […] Following trypsinization, cells were centrifuged at 1000×g for 10 min, and the pellet was resuspended in PBS. Fixation was completed by adding 70% cold ethanol for at least 2 h. The fixed cells were centrifuged at 1000 g for 10 min, and the pellet suspended in PBS. After 60 s, the cells were centrifuged as before, and the pellet resuspended in 1 ml of propidium iodide (PI) staining solution. Immediately after 15 min incubation at 37° C., the cells were analyzed to determine the cell cycle stage using flow cytometry (BD FACS Calibur, San Jose, Calif., USA) with an excitation wavelength of 488 nm and an emission at 670 nm using the Cell Quest software for analysis. The data presented represent at least three independent experiments conducted in triplicate (N=3).

JURKAT cells [3] = assay: DNA fragmentation by TUNEL assay; conditions: 48 h, 10.33 μM
Excerpt: DNA fragmentation is a key feature of apoptosis, and is largely due to activation of endogenous endonucleases that induce cleavage of chromatin DNA into internucleosomal fragments of roughly 180 base pairs. Apoptosis can be qualitatively assessed by monitoring DNA fragmentation trends, for instance, using terminal deoxynucleotidyl transferase dUTP nick end labeling (TUNEL) assay. For untreated […] cells, TUNEL assay results indicated a constant base line of TUNEL-positive cells. […] DNA fragmentation was monitored in treated, control treated and untreated JURKAT cells to identify stages of apoptosis. […] Supernatant and adherent cells were collected in a centrifuge tube and then washed twice with PBS. The cells were fixed with 70% ice-cold ethanol by incubating at -20° C. for 30 min. The fixed cells were resuspended in wash buffer, and then washed twice by centrifugation. 50 μl of DNA labeling solution was added to each cell pellet. The cell pellets were incubated with the DNA labeling solution at 37° C. for 60 min. The cell pellets were rinsed with rinse buffer and then resuspended with 0.5 ml of PI/RNase Staining Buffer and incubated for 30 min at RT. Flow cytometry was performed to detect DNA fragmentation (BD FACS Calibur, San Jose, Calif., USA).

JURKAT cells [4] = assay: MTT cytotoxicity assay on JURKAT cells; conditions: for IC50: Homo sapiens, JURKAT cells
Protocol: As described in detail herein, a cytotoxicity assay of compound 4 was performed on four human cancer cell lines—JURKAT, NCI-H460, HCT116 and MCF7—with camptothecin (CPT) as a positive control. The inhibitory effects of compound 4 on JURKAT, NCI-H460, HCT116 and MCF7 cancer cells were determined by an MTT (3-[4,5-dimethylthiazol-2-yl]-2,5 diphenyltetrazolium bromide) assay. The cancer cells were exposed to compound 4 at various concentrations of 1, 5, 10, 15, and 20 μM for different incubation periods of 24 h and 48 h. […] The stock solutions of 1 mM compound 4 and camptothecin (40 μM) were prepared, respectively, in DMSO. Further dilutions of 1, 5, 10, 15, and 20 μM were made in Dulbecco's Modified Eagle's Medium (DMEM) for treatment of cancer cells. MCF-7 (human breast cancer); HCT116 (human colon cancer); NCI-H460 (human non-small lung cancer); and JURKAT (human T-cell lymphoma) cell lines were obtained from the National Centre for Cell Science (NCCS, Pune, India). All cells were cultured in DMEM—except JURKAT cells, which were cultured in RPMI media—and supplemented with 10% fetal bovine serum (HiMedia, India) with penicillin (100 I.U/mL) and streptomycin (100 μg/mL) at 37° C. in a humidified atmosphere of 5% CO2 in air. Cultured cells of 75-85% confluency were used for the assays. Adherent cells were trypsinized, counted and seeded in 96-well plates for viability studies. Cells were allowed to adhere overnight before treatment in the experiments. JURKAT cells were washed with D-PBS, counted and seeded in 96-well plates for viability studies. Cytotoxicity of compound 4 for JURKAT cells was determined by 3-(4,5-dimethylthiazol-2-yl)-2,5-diphenyltetrazolium bromide (MTT) assay. In brief, cells were seeded with different concentrations of compound 4—specifically 1, 5, 10, 15, and 20 μM—in 96 wells plate at a density of 20000 cells per well and incubated for 24 h and 48 h at 37° C., in a CO2 incubator. The MTT assay was performed according to manufacturer instructions and absorbance of the treated and untreated cells were measured in a microplate reader at 570 nm wavelength. Results were represented as percentage of viability={[A570 (treated cells)−background]/[A570 (untreated cells)−background]}×100. Each treatment was performed in triplicate (N=3).

[5] = test system: Caspase-3 in JURKAT cells; assay: Caspase-3 expression assay, FITC staining, flow cytometry; conditions: 48 h, 10.33 μM, CPT 40 μM
Protocol: Caspase-3 expression was measured using FITC staining. […] Apoptotic caspases are believed to be activated in a protease cascade in which the activated apical caspases responding to apoptotic stimuli directly activate the executioner (effector) caspases in a precisely controlled process. Among these effector caspases, caspase-3, a member of the cysteine protease family, plays a central role in the execution phase of both intrinsic (mitochondrial) and extrinsic (death receptor) pathways of apoptosis by cleaving many key cellular proteins, such as poly (ADP ribose) polymerase (PARP), inhibitor of caspase-activated DNase (ICAD), and several others. Briefly, JURKAT cells (1×10^6 cells/well) were seeded in a 6-well plate. […] The JURKAT cells were harvested and then fixed with 70% ice-cold ethanol followed by incubation at −20° C. for 30 min. The fixed JURKAT cells were washed twice with PBS and treated with 20 μl of Caspase-3-FITC (BD Biosciences) and incubated for 60 min at room temperature in dark conditions. Cells were washed with PBS and resuspended in 0.5 ml of PBS, before analysis for Caspase-3 expression using BD FACS Callibur (San Jose, Calif., USA).

MCF7 cells = assay: MTT cytotoxicity assay on MCF7 cells; conditions: MCF7, 1-20 μM, 24 and 48 hours
Protocol: as §1

JURKAT cells [6] = assay: FITC Annexin V/PI apoptosis assay by flow cytometry; conditions: 48 h of treatment, compound 4 at 10.33 μM
Protocol: To determine whether the antiproliferative effect of compound 4 can trigger cell apoptosis, the percentage of JURKAT cells undergoing apoptosis was determined by flow cytometric analysis after the cells were stained with FITC Annexin V and proidium iodide (PI). […] As depicted in FIGS. 6A-6G, after 48 h of treatment with compound 4, a significant accumulation of AnnexinV^+ was observed, relative to CTP treated cells. 45.21% and 12.54% of cells were determined to be in early apoptosis (AnnexinV^+) when treated with compound 4 and CTP, respectively. Similarly, 46.32% and 14.33% of cells were determined to be in late apoptosis (AnnexinV^+, PI^+) when treated with compound 4 and CTP, respectively. Apoptosis assay was performed using FITC Annexin V Apoptosis Detection Kit I (BD Biosciences, San Jose, Calif., USA). The fluorescence intensities of FITC-conjugated Annexin V and PI in compound 4 treated, control treated and untreated cells were analyzed using flow cytometry. Briefly, JURKAT cells (1×10^6 cells/well) were seeded in a 6-well plate. […] Following trypsinization, cells were centrifuged at 1000×g for 10 min, and the pellet was gently resuspended in 100 μL FITC Annexin V binding buffer and then incubated with 5 μL of FITC Annexin V in the dark for 10 min at 25° C. The cells were then centrifuged at 2000 rpm for 5 min, gently resuspended in 500 μL of FITC Annexin V binding buffer and 5 μL of PI was added in an ice bath, followed by flow cytometry (BD FACS Calibur, San Jose, Calif., USA) the apoptotic cells were analyzed using Cell Quest software.

Structure (SMILES)	Proliferation of the cancer cells (NCI-H460 cells)	Proliferation of the cancer cells (HCT116 cells)	mitochondrial membrane potential (ΔΨm) compared to control (untreated) cells (JURKAT cells [1])	percentage of cells in G0/G1 phase (JURKAT cells [2])	percentage of cells in G2/M phase (JURKAT cells [2])	percentage of cells in S phase compared to untreated cells (JURKAT cells [2])	percentage of cells in sub G0/G1 phase compared to untreated cells (JURKAT cells [2])	number of TUNEL-positive cells compared with untreated or control cells (JURKAT cells [3])	DNA fragmentation relative to CTP (control) treated cells (JURKAT cells [3]; CPT 40 μM)	IC50 (JURKAT cells [4]; MTT, 24 h, read-out: IC50 (half maximal inhibitory concentration)) [µM]	IC50 (JURKAT cells [4]; MTT, 48 h, read-out: IC50 (half maximal inhibitory concentration)) [µM]	Proliferation of the cancer cells (JURKAT cells [4]; JURKAT, 1-20 μM, 24 and 48 hours)	Inhibition compared to positive control CPT (40 μM) (JURKAT cells [4]; compound 4 at 15 μM and 20 μM)	caspase-3 expression compared with CPT control treated cells [5]	Proliferation of the cancer cells (MCF7 cells)	cells in early apoptosis (AnnexinV+) (JURKAT cells [6]) [%]	cells in late apoptosis (AnnexinV+, PI+) (JURKAT cells [6]) [%]	IC50 (JURKAT cells [4]; given as treatment concentration, time not stated, read-out: IC50 of CPT as stated in the methods) [µM]
O=C1/C(=C/c2ccc(Br)cc2)CN2CC13C(c1ccc(Br)cc1)C1Cc4ccccc4CN1C31c3cccc4cccc(c34)[C@@]21O (some centres unmarked) [compound 4]	significantly inhibited in a concentration-dependent manner	significantly inhibited in a concentration-dependent manner	Significant decrease	decreased	decreased	significantly increased	moderately increased	significant increase	increased DNA fragmentation	15.6	10.3	significantly inhibited in a concentration-dependent manner	higher inhibition	higher caspase-3 expression	significantly inhibited in a concentration-dependent manner	45.21	46.32	
CC[C@@]1(O)C(=O)OCc2c1cc1n(c2=O)Cc2cc3ccccc3nc2-1 [CPT, camptothecin, reference compound]																12.54	14.33	40
